# According to US20040265979A1, “Novel macrophage foam cell formation inhibitor fka-25 and process for producing the same” (priority 2004, published 2004):
# How the values were obtained:
# [1] = Physico-chemical properties: solubility in solvents, acidity/basicity; assay type: physicochemical
# Source text: Physico-chemical properties of FKA-25 substance of the present invention are as follows.
# [2] = test system: Macrophages isolated from mice peritoneum; assay: Formation of cholesteryl ester and lipid droplet in mouse intraperitoneal macrophages ([1-14C]oleic acid incorporation, TLC); assay type: cell-based; conditions: Macrophage, mouse peritoneal macrophages, liposome + [1-14C]oleic acid
# Source text: Inhibitory action of FKA-25 substance of the present invention against intraperitoneal formation of cholesteryl ester and lipid droplet in mice is explained as follows.
# Formation of cholesteryl ester and lipid droplet in mice in the intraperitoneal macrophage was examined according to the method of Namatame et al. (J. Biochem. 125, 319-327, 1999).
# Macrophages isolated from mice peritoneum were suspended in Dulbecco modified Eagle's medium containing 6.8% lipoprotein deficient serum (6.8% LPDS-DMEM) 2.0×10^6 cells/ml, and plated each 0.25 ml into 48 well microplate (Corning Inc.) or slide chamber (Nunc Inc.).
# The plate was incubated in 5% carbon dioxide incubator at 37° C. for 2 hours, then cells without attachment were removed by washing with Hank's solution. After washing, cells were incubated with 6.8% LPDS-DMEM for 1 hour, and FKA-25 substance (2.5 μl methanol), liposome (a composition consisting of phosphatidylcholine/phosphatidylserine/dicetylphosphate/cholesterol=10:10:2:15 (n mol) in 0.3 M glucose 10 μl) and [1-^14C]oleic acid (5 μl, 0.05 μCi, 1 nmol) were added, then incubated for 14 hours.
# Cultured supernatant was removed off and intracellular neutral lipid was extracted twice by adding hexane 0.6 ml and isopropanol 0.4 ml. […] The separated [^14C]cholesteryl oleate and [^14C]triacylglycerol were quantitatively measured by using radio scanner (Ambis Inc., the U.S.). […]
smiles,measurement,setting,value
CC(C)=CCc1c(C(O)C2OC2(C)C)ccc2[nH]c3c(c12)CC1CCC2(O)C(C)(C)C(=O)CCC2(C)C31C (centres unmarked) [FKA-25 substance],"Differentiation from acidity, neutrality and basicity",[1],weak basic substance
same,Solubility in solvents,"[1]; in methanol, acetone, chloroform and ethyl acetate",Soluble
same,Solubility in solvents,[1]; in water and hexane,slightly soluble
same,inhibition at 3.2 µM,"[2]; at 3.2 μM, 14 hours, read-out: inhibition of the formation of triacylglycerol",~50%
same,IC50,"[2]; incubated for 14 hours, read-out: IC50, inhibition of the formation of [14C]cholesteryl oleate",4 µM
